US7485667B2, “Acetylenic aryl sulfonate hydroxamic acid tace and matrix metalloproteinase inhibitors” (Wyeth Holdings Corporation, priority 2002, dated 2009)

Tests used:
THP-1 cells = experiment: THP-1 soluble protein assay (LPS-stimulated THP-1 cells, ELISA); assay type: cell-based; conditions: Homo sapiens
Source text: Human Monocytic THP-1 Cell Differentiation Assay for Soluble Proteins (THP-1 Soluble Protein Assay)
Mitogenic stimulation of THP-1 cells cause differentiation into macrophage like cells with concomitant secretion of tumor necrosis factor (TNF-a) and TNF receptor (TNF-R p75/80 and TNF-R p55/60) and Interleukin-8 (IL-8), among other proteins. In addition, non-stimulated THP-1 cells shed both the p75/80 and the p55/60 receptors over time. The release of membrane bound TNF-α and possibly TNF-R p75/80 and TNF-R p55/60, but not IL-8, is mediated by an enzyme called TNF-a converting enzyme or TACE.
THP-1 cells (from ATCC) are a human monocytic cell line which are obtained from the peripheral blood of a person with acute monocytic leukemia. They can be grown in culture and differentiated into macrophage like cells by stimulation with mitogens.
For the assay, THP-1 cells are seeded from an ATCC stock which is previously grown and frozen back at 5×10^6/ml/vial. One vial is seeded into a T25-flask with 16 mls of RPMI-1640 with glutamax (Gibco) media containing 10% fetal bovine serum, 100 units/ml penicillin, 100 μg/ml streptomycin, and 5×10^−5 M 2-mercapto-ethanol (THP-1 media). Each vial of cells are cultured for about two weeks prior to being used for an assay and then are used for only 4 to 6 weeks to screen compounds. Cells are subcultured on Mondays and Thursdays to a concentration of 1×10^5/ml.
To perform an assay, the THP-1 cells are co-incubated in a 24 well plate with […] of a 24 mg/ml stock of Lipopolysacharide (LPS) (Calbiochem Lot# B13189) at 37° C. in 5% CO2 at a concentration of 1.091×10^6 cells/ml (1.1 ml/well) for a total of 24 hours. At the same time, […] of drug, vehicle or THP-1 media is plated in appropriate wells to give a final volume of 1.2 ml/well. Standard and test compounds are dissolved in DMSO at a concentration of 36 mM and diluted from here to the appropriate concentrations in THP-1 media and added to the wells at the beginning of the incubation period to give final concentrations of […], 300 nM, and 100 nM. Cell exposure to DMSO is limited to 0.1% final concentration. Positive control wells are included in the experiment which had mitogen added but no drug. Vehicle control wells are included as well, which are identical to the positive control wells, except that DMSO is added to give a final concentration of 0.083%. Negative control wells are included in the experiment which had vehicle but no mitogen or drug added to the cells. Compounds can be evaluated for their effect on basal (non-stimulated) shedding of the receptors by replacing the LPS with […] of THP-1 media. Plates are placed into an incubator set at 5% CO2 and at 37° C. […]
In addition, at the 24 hours timepoint, and the cells for each treatment group are collected by resuspension in 500 μl/well of THP-1 media and transferred into a FACS tube. […] The samples are run on a Becton Dickinson FaxCaliber FLOW cytometry machine and the amount of dye taken up by each cell is measured in the high red wavelength (FL3). […] The percent of live cells is calculated by the number of cells not stained with PI, divided by the total number of cells in the sample. The viability values calculated for the drug treated groups are compared to the viability value calculated for the vehicle treated mitogen stimulated group (“vehicle positive control”) to determine the “percent change from control”. […]

MMP-13 = MMP-13 (Homo sapiens, UniProt P45452); experiment: MMP-13 inhibition (thiopeptide or fluorescent peptide substrate); assay type: biochemical; conditions: read-out: MMP-13 % Inhib
Protocol: (§1) Test Procedures for Measuring MMP-1 and MMP-13 Inhibition
(§2) These standard pharmacological test procedures are based on the cleavage of a thiopeptide substrates such as Ac-Pro-Leu-Gly(2-mercapto-4-methyl-pentanoyl)-Leu-Gly-OEt by the matrix metalloproteinases MMP-1 or MMP-13 (collagenases) which results in the release of a substrate product that reacts colorimetrically with DTNB (5,5′-dithiobis(2-nitro-benzoic acid)). The enzyme activity is measured by the rate of the color increase. The thiopeptide substrate is made up fresh as a 20 mM stock in 100% DMSO and the DTNB is dissolved in 100% DMSO as a 100 mM stock and stored in the dark at room temperature. Both the substrate and DTNB are diluted together to 1 mM with substrate buffer (50 mM HEPES pH 7.5, 5 mM CaCl2) before use. The stock of enzyme is diluted with buffer (50 mM HEPES, pH 7.5, 5 mM CaCl2, 0.02% Brij) to the desired final concentration. The buffer, enzyme, vehicle or inhibitor, and DTNB/substrate are added in this order to a 96 well plate (total reaction volume of 200 μl) and the increase in color is monitored spectrophotometrically for 5 minutes at 405 nm on a plate reader and the increase in color over time is plotted as a linear line.
(§3) Alternatively, a fluorescent peptide substrate is used. In this test procedure, the peptide substrate contains a fluorescent group and a quenching group. Upon cleavage of the substrate by an MMP, the fluorescence that is generated is quantitated on the fluorescence plate reader. The assay is run in HCBC assay buffer (50 mM HEPES, pH 7.0, 5 mM Ca^+2, 0.02% Brij, 0.5% Cysteine), with human recombinant MMP-1 or MMP-13. The substrate is dissolved in methanol and stored frozen in 1 mM aliquots. For the assay, substrate and enzymes are diluted in HCBC buffer to the desired concentrations. Compounds are added to the 96 well plate containing enzyme and the reaction is started by the addition of substrate. The reaction is read (excitation 340 nm, emission 444 nm) for 10 min. and the increase in fluorescence over time is plotted as a linear line.
(§4) For either the thiopeptide or fluorescent peptide test procedures, the slope of the line is calculated and represents the reaction rate. The linearity of the reaction rate is confirmed (r^2>0.85). The mean (x±sem) of the control rate is calculated and compared for statistical significance (p<0.05) with drug-treated rates using Dunnett's multiple comparison test. Dose-response relationships can be generated using multiple doses of drug and IC50 values with 95% Cl are estimated using linear regression.

MMP-1 = target: T1, MMP-1 (Homo sapiens, UniProt P03956); experiment: MMP-1 inhibition (thiopeptide or fluorescent peptide substrate); assay type: biochemical; conditions: read-out: MMP-1 % Inhib
T1 sequence (P03956 100-469): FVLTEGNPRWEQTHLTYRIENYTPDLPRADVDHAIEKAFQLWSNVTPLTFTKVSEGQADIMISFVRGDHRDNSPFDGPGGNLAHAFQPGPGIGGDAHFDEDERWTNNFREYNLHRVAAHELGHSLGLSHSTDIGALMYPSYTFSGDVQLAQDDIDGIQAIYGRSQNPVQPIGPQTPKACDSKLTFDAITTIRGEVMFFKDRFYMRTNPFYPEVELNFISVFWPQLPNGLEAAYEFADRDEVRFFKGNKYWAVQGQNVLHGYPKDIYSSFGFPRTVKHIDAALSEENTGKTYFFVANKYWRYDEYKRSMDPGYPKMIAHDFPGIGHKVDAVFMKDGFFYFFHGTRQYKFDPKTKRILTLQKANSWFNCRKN
Protocol: as §1, §2, §3, §4

[1] = target: TNF-α converting enzyme (TACE) (Homo sapiens, UniProt P78536); experiment: TACE inhibition (fluorescent peptidyl substrate); assay type: biochemical
Protocol: Test Procedure for Measuring TACE Inhibition
Using 96-well black microtiter plates, each well receives a solution composed of 10 μL TACE (final concentration 1 μg/mL), 70 μL Tris buffer, pH 7.4 containing 10% glycerol (final concentration 10 mM), and 10 μL of test compound solution in DMSO (final concentration 1 μM, DMSO concentration <1%) and incubated for 10 minutes at room temperature. The reaction is initiated by addition of a fluorescent peptidyl substrate (final concentration 100 μM) to each well and then shaking on a shaker for 5 sec.
The reaction is read (excitation 340 nm, emission 420 nm) for 10 min. and the increase in fluorescence over time is plotted as a linear line. The slope of the line is calculated and represents the reaction rate.
as §4, with “The” for “For either the thiopeptide or fluorescent peptide test procedures, the slope of the line is calculated and represents the reaction rate. The”, “generate” for “generated”

Chain of TNF-α converting enzyme (TACE) (P78536 215-824, species assumed): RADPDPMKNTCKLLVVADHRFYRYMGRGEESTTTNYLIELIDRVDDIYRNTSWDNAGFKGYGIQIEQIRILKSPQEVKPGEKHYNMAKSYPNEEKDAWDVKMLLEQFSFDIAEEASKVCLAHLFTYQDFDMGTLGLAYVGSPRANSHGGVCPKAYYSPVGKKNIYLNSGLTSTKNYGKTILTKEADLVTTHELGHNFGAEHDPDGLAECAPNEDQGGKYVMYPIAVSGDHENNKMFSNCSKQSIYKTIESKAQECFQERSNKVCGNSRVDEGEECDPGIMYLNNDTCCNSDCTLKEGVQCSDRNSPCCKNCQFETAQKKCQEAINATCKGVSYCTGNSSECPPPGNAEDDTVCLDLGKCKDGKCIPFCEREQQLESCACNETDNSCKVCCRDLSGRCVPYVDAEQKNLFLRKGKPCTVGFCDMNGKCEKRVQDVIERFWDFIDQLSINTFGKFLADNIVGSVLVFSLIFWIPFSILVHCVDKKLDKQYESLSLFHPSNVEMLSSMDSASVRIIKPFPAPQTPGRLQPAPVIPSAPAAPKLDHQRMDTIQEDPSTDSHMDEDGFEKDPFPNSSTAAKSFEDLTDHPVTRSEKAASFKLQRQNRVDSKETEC

Compound	inhibition at 10 µM (MMP-13) [%]	inhibition at 10 µM (MMP-1) [%]	IC50 [1] [nM]	inhibition at 1 µM (THP-1 cells) [%]
CC#CCOc1ccc(S(=O)(=O)Oc2c(C)cccc2C(=O)NO)cc1 [Example 1, 2-[(Hydroxyamino)carbonyl]-6-methylphenyl 4-(2-butynyloxy)benzenesulfonate]	38	11	19	11
CC#CCOc1ccc(S(=O)(=O)Oc2c(OC)cccc2C(=O)NO)cc1 [Example 2, 2-[(Hydroxyamino)carbonyl]-6-methoxyphenyl 4-(2-butynyloxy)benzenesulfonate]	56	7	13	1
CC#CCOc1ccc(S(=O)(=O)Oc2c(C(=O)NO)cc(C(C)C)cc2C(C)C)cc1 [Example 4, 2-[(Hydroxyamino)carbonyl]-4,6-diisopropylphenyl 4-(2-butynyloxy)benzenesulfonate]	45	3	361	6

Further lines, with some results ahead:

inhibition at 10 µM (MMP-13) [%]	inhibition at 10 µM (MMP-1) [%]	IC50 [1] [nM]	Compound	inhibition at 1 µM (THP-1 cells) [%]
27	11	31	CC#CCOc1ccc(S(=O)(=O)Oc2ccc(C)cc2C(=O)NO)cc1 [Example 3, 2-[(Hydroxyamino)carbonyl]-4-methylphenyl 4-(2-butynyloxy)benzenesulfonate]	0
64	16	67	CC#CCOc1ccc(S(=O)(=O)Oc2cc3ccccc3cc2C(=O)NO)cc1 [Example 5, 3-[(Hydroxyamino)carbonyl]-2-naphthyl 4-(2-butynyloxy)benzenesulfonate]	0
